Marks after values point to notes of the source that are not given here.
Columns and labels:
[1] = test system: DSS acute enteritis model; assay: DSS acute enteritis model (Example 6): intestinal length and histopathological evaluation; format: in vivo, BALB/c mice; details: DSS mice; polyphosphate 5 μg/head or TAC 60 μg/head oral daily day 0-7; day 8
Procedure: (§1) Dextran sodium sulfate (DSS) (MP-BioMedicals; 160110) was dissolved in distilled water to prepare 2% DSS solution. Chemical-induced enteritis was triggered in BALB/c mice (Charles River, Japan) by administering the solution as drinking water ad libitum for 5 days, and acute enteritis was developed while distilled water was supplied as drinking water ad libitum from day 6 to day 8 (necropsy day). Each polyphosphate (PPA-Na, PPA-Ca, PPA-Zn, or PPA-Mg; 5 μg/head each) or tacrolimus (TAC; 60 μg/head; Sigma CORPORATION, PHR1809) was orally administered daily from day 0 to day 7, and on day 8, the mice were subjected to various tests.
(§2) Mice were euthanized by cervical dislocation under isoflurane anesthesia, and the entire length of the colon was excised after opening the abdomen with scissors. The length of the excised colon was measured on a scale (FIG. 5).
(§3) Each colon tissue was Swiss rolled (Moolenbeek C, Lab Anim. 1981) and fixed in 10% formalin according to the procedure instructed by Moolenbeek C et al. The tissue was paraffin-embedded, thinly sliced to 4 μm, and stained with hematoxylin & eosin as a prepared specimen. The tissue was pathologically evaluated by inflammatory tissue scoring (Berg DJ, J Clin Invest, 1996) as described by Berg et al. The improvement rate (%) was calculated according to the following formula (Table 4).

[2] = test system: inflammatory cytokines (IL1β, TNFα, IL6, IFNγ, IL17A); assay: DSS acute enteritis model (Example 9, dose examination): RT-PCR of cytokine mRNA; format: in vivo, BALB/c mice; details: 20 μg/head oral daily day 5-11, day 12
Procedure: (§4) The colon was cut and open in half using scissors, and the intestinal mucosa was detached with a slide glass. Intestinal mucosal tissue was soaked in 0.5 ml TRIzol (ThermoFisher Scientific K.K.), frozen in liquid nitrogen, and stored at −80° C. After thawing each stored sample at room temperature, RNA was recovered according to the procedure instructed by ThermoFisher Scientific K.K. The recovered total RNA was purified using an RNeasy Mini kit (Qiagen) and reverse-transcribed using a High-Capacity cDNA Reverse Transcription Kit (ThermoFisher Scientific K.K.). A PCR reaction was performed, using the recovered cDNA as a template, with EagleTaq Universal Master Mix with ROX (Roche). The primers (TaqMan Gene Expression Assays; ThermoFisher Scientific K.K.) used in the reaction are as follows. IL1β: Mm01336189, TNFα: Mm00443258, IL6: Mn00446190, IFNγ: Mm99999071. Changes in each gene expression level were standardized based on the expression level of Eukaryotic 18S rRNA Endogenous Control (ThermoFisher Scientific K.K.). Spectrum data was acquired using the Applied Biosystems 7300 Real Time PCR system.
(§5) Dextran sodium sulfate (DSS) (MP-BioMedicals; 160110) was dissolved in distilled water to prepare 2% DSS solution. Chemical-induced enteritis was triggered in BALB/c mice (Charles River, Japan) by administering the solution as drinking water ad libitum for 5 days, and acute enteritis was developed while distilled water was supplied as drinking water ad libitum from day 5 to day 12 (necropsy day). Zinc polyphosphate PPA-Zn (1, 5, 20, or 50 μg/head each) or tacrolimus (20 μg/head) was orally administered daily from day 5 to day 11, and on day 12, the mice were subjected to various tests (FIG. 8).
(§6) The mRNA expression levels of various cytokines (IL1β, TNFα, IL6, IFNγ, and IL17A) were analyzed according to Example 6, and the improvement rate was calculated (Table 6). The primers (TaqMan Gene Expression Assays; ThermoFisher Scientific K.K.) used in the reaction are as follows. IL1β: Mm01336189, TNFα: Mm00443258, IL6: Mn00446190, IFNγ: Mm99999071, IL17A: Mm00439618.

[3] = test system: DSS acute enteritis model; assay: DSS acute enteritis model (Example 9, dose examination): intestinal length and histopathological evaluation; format: in vivo, BALB/c mice; details: DSS mice; 20 μg/head oral daily day 5-11; day 12
Procedure: as §2, §3, §5
The intestinal length after zinc polyphosphate treatment was measured according to Example 6, and the improvement rate was calculated (FIG. 8).
Each tissue was pathologically evaluated by inflammatory tissue scoring according to Example 6, and the improvement rate was calculated (Table 6).

[4] = test system: inflammatory cytokines (IL1β, TNFα, IL6, IFNγ, IL17A); assay: DSS acute enteritis model (Example 10, after long-term storage): RT-PCR of cytokine mRNA; format: in vivo, mice; details: day 12, PPA-Zn initial (not stored) or TAC
Procedure: as §4
(§7) Zinc polyphosphate Test 15-2 was stored under a condition at 60° C. and 75% RH for 8 weeks according to Example 2. The zinc polyphosphate Test 15-2 after storage was used to evaluate efficacy in the DSS acute enteritis model, measure the intestinal length, perform RT-PCR, and evaluate the histopathological severity according to Example 6 (Table 7, FIG. 9).
(§8) DDS acute enteritis model mice were generated according to Example 6 and subjected to various tests on day 12 (FIG. 9).
as §6, with “7).” for “6).”

[5] = test system: DSS acute enteritis model; assay: DSS acute enteritis model (Example 10, after long-term storage): intestinal length and histopathological evaluation; format: in vivo; details: DSS mice, day 12; PPA-Zn initial (not stored) or TAC
Procedure: as §2, §3, §7, §8
The intestinal length after zinc polyphosphate treatment was measured according to Example 6, and the improvement rate was calculated (FIG. 9).
Each tissue was pathologically evaluated by inflammatory tissue scoring according to Example 6, and the improvement rate was calculated (Table 7).

[6] = test system: inflammatory cytokines (TNFα, IL1β, IL6, IFNγ); assay: DSS acute enteritis model (Example 6): RT-PCR of inflammatory cytokines in intestinal mucosa; format: in vivo, BALB/c mice; details: polyphosphate 5 μg/head or TAC 60 μg/head oral daily day 0-7, day 8
Procedure: as §1, §4

[7] = relative value when control is set to 1

SMILES: C=CC[C@@H]1/C=C(\C)C[C@H](C)C[C@H](OC)[C@H]2O[C@@](O)(C(=O)C(=O)N3CCCC[C@H]3C(=O)O[C@H](/C(C)=C/[C@@H]3CC[C@@H](O)[C@H](OC)C3)[C@H](C)[C@@H](O)CC1=O)[C@H](C)C[C@@H]2OC [TAC, tacrolimus]
- Improvement rate Histological severity [1]: 40% *
- Improvement rate Intestinal length [1]: 43% *
- Macro findings Intestinal length [1]: 109.8 ± 6.5 mm
- Micro findings Histological severity [1]: 1.8 ± 0.4
- Improvement rate IFNγ ([2]; DSS mice): 63%
- Improvement rate IL1β ([2]; DSS mice): 31%
- Improvement rate IL6 ([2]; DSS mice): 73%
- Improvement rate IL17A ([2]; DSS mice): 66%
- Improvement rate TNFα ([2]; DSS mice): 39%
- Changes in inflammatory cytokines IFNγ [2, 7]: 1.5 ± 0.8
- Changes in inflammatory cytokines IL1β [2, 7]: 85.9 ± 117.1
- Changes in inflammatory cytokines IL6 [2, 7]: 27.2 ± 52.4
- Changes in inflammatory cytokines IL17A [2, 7]: 53.9 ± 77
- Changes in inflammatory cytokines TNFα [2, 7]: 5.4 ± 4.5
- Improvement rate Histological severity [3]: 27%
- Improvement rate Intestinal length [3]: 9%
- Macro findings Intestinal length [3]: 99.4 ± 12.6 mm
- Micro findings Histological sovority [3]: 2.4 ± 1.3
- Improvement rate IFNγ ([4]; DSS mice): 79%
- Improvement rate IL1β ([4]; DSS mice): 44%
- Improvement rate IL6 ([4]; DSS mice): 76%
- Improvement rate IL17A ([4]; DSS mice): 80%
- Improvement rate TNFα ([4]; DSS mice): 50%
- Changes in inflammatory cytokines IFNγ [4, 7]: 12.1 ± 27.7
- Changes in inflammatory cytokines IL1β [4, 7]: 201.1 ± 211.7
- Changes in inflammatory cytokines IL6 [4, 7]: 49.5 ± 55.5
- Changes in inflammatory cytokines IL17A [4, 7]: 192.9 ± 321.9
- Changes in inflammatory cytokines TNFα [4, 7]: 8.2 ± 5
- Improvement rate Histological severity [5]: 42%
- Improvement rate Intestinal length [5]: 12%
- Macro findings Intestinal length [5]: 89 ± 4.5 mm
- Micro findings Histological severity [5]: 2.3 ± 0.5
- Improvement rate IFNγ ([6]; DSS mice): 98%
- Improvement rate IL1β ([6]; DSS mice): 88% *
- Improvement rate IL6 ([6]; DSS mice): 94%
- Improvement rate TNFα ([6]; DSS mice): 85% *
- Changes in inflammatory cytokines IFNγ [6, 7]: 2 ± 0.9
- Changes in inflammatory cytokines IL1β [6, 7]: 6.7 ± 6.3
- Changes in inflammatory cytokines IL6 [6, 7]: 5.1 ± 2.3
- Changes in inflammatory cytokines TNFα [6, 7]: 2.2 ± 0.5

From patent US20260166076A1, “PHARMACEUTICAL COMPOSITION CONTAINING ZINC POLYPHOSPHATE” (Kamui Pharma, Inc., priority 2022, published 2026)
